Measured values reported in ChEMBL document CHEMBL4680259, “Discovery of bazedoxifene analogues targeting glycoprotein 130” (Eur J Med Chem, 2020).
Calls of active or inactive are those of the source. No cut-off for these calls is given here.

Experiments:
Mus musculus = assay: Inhibition of phosphorylated STAT3 levels in tumor tissue of nude mouse xenografted with human A549 cells at 10 to 20 mg/kg, ip administered daily for 21 days by western blot analysis; assay type: functional, organism-based; details: dose 10-20 mg/kg, time 21.0 day
[1] = Half life in rat at 0.5 mg/kg, iv; assay type: ADME, organism-based; details: in vivo
[2] = biological target: T1, Interleukin-6 receptor subunit beta (Homo sapiens) (UniProt P40189); assay: Inhibition of GP130 in human A549 cells assessed as reduction in bcl2 protein expression after 24 hrs by Western blot analysis; assay type: cell-based; details: dose 3-9 µM
T1 sequence (whole entry): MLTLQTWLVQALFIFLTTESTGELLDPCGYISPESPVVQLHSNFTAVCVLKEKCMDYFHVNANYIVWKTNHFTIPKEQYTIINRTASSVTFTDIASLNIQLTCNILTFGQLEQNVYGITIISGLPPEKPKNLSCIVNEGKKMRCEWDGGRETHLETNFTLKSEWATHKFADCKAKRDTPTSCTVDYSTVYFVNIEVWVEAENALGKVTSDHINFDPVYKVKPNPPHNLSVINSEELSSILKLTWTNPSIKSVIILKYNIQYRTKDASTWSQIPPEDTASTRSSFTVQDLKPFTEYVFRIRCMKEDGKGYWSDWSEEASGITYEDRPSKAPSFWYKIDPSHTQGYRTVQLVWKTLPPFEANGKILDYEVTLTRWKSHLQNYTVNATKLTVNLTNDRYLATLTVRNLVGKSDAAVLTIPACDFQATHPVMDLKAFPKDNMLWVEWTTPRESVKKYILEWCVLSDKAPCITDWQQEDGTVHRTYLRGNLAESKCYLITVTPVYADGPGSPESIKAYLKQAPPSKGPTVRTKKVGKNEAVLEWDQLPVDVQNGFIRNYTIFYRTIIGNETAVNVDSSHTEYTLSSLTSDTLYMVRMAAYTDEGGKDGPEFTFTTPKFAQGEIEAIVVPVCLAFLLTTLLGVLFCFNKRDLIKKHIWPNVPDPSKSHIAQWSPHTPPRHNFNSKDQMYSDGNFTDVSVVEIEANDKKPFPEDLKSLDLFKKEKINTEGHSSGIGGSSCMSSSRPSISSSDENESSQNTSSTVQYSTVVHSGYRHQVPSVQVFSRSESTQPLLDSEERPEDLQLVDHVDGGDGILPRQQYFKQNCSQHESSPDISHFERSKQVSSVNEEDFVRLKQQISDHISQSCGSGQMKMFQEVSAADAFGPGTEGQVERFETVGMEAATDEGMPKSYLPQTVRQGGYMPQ

A549 [3] = assay: Induction of ROS generation in human A549 cells assessed as fold increase in ROS level at 3 uM after 24 hrs by DCFH-DA staining based flow cytometric analysis relative to control; assay type: functional
[4] = Acute toxicity in ICR mouse assessed as mortality at 120 mg/kg measured after 2 weeks; assay type: organism-based; details: in vivo, 336 h
A549 [5] = assay: Induction of apoptosis in human A549 cells assessed as viable cells at 9 uM incubated for 24 hrs by annexin V-FITC and propidium iodide staining based flow cytometry analysis (reference value: 97.7 %); assay type: functional; details: read-out: Activity
[6] = Bioavilability in rat at 5 mg/kg, ig; assay type: ADME, organism-based; details: in vivo, po
A549 [7] = assay: Induction of apoptosis in human A549 cells assessed as early apoptotic cells at 6 uM incubated for 24 hrs by annexin V-FITC and propidium iodide staining based flow cytometry analysis (reference value: 0.5 %); assay type: functional
A549 [8] = assay: Induction of apoptosis in human A549 cells assessed as necrotic cells at 3 uM incubated for 24 hrs by annexin V-FITC and propidium iodide staining based flow cytometry analysis (reference value: 0.4 %); assay type: functional
[9] = Mean residence time in rat at 0.5 mg/kg, iv; assay type: ADME, organism-based; details: in vivo
A549 [10] = assay: Induction of apoptosis in human A549 cells assessed as increase in cleaved caspase-3 level at 3 to 9 uM incubated for 24 hrs by Western blot analysis; assay type: functional, cell-based; details: dose 3-9 µM
Estrogen receptor = biological target: T2, Estrogen receptor (Homo sapiens, UniProt P03372); assay: Binding affinity to ERalpha (unknown origin) by SPR assay
T2 sequence (P03372 whole entry): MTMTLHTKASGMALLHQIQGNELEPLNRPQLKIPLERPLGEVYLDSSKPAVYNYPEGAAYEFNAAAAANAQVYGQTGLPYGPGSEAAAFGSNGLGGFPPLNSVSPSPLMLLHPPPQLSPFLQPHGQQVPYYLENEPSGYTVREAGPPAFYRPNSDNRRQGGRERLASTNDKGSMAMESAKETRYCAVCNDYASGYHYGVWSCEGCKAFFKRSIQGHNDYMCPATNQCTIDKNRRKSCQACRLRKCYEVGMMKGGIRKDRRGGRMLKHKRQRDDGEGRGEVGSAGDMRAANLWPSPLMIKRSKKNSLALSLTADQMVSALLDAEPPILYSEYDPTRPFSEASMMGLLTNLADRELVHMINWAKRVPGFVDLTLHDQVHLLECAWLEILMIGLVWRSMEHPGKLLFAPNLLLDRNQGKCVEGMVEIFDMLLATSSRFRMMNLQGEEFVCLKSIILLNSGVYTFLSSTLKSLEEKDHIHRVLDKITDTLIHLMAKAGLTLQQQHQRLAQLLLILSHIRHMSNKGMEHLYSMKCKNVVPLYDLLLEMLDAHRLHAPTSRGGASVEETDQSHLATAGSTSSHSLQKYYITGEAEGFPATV

[11] = biological target: T1, Interleukin-6 receptor subunit beta (Homo sapiens); assay: Binding affinity to GP130 in human A549 cell lysates assessed as decrease in pronase mediated protein degradation by measuring increase in abundance of GP130 band at 100 to 1000 uM preincubated for 1 hr followed by pronase addition for 30 mins by DARTS assay; assay type: subcellular; details: dose 100-1000 µM, time 90.0 min
A549 [12] = assay: Antimigratory activity against human A549 cells assessed as reduction in cell migration measured after 24 hrs by scratch wound healing assay; assay type: functional, cell-based; details: dose 3-6 µM
[13] = biological target: T1, Interleukin-6 receptor subunit beta (Homo sapiens); assay: Binding affinity to immobilized GP130 (unknown origin) assessed as response unit at 20 uM by SPR analysis
A549 [14] = assay: Potency index, ratio of bazedoxifene IC50 to test compound IC50 for antiproliferative activity against human A549 cells after 24 hrs by MTT assay; assay type: functional
[15] = AUC (0 to infinity) in rat at 0.5 mg/kg, iv; assay type: ADME, organism-based; set-up: route intravenous, time infinity, dose 0.5 mg/kg; details: in vivo
[16] = biological target: T1, Interleukin-6 receptor subunit beta (Homo sapiens); assay: Inhibition of GP130 in human A549 cells assessed as decrease in JAK2 phosphorylation at 3 to 9 uM incubated for 24 hrs by western blot analysis; assay type: cell-based; details: dose 3-9 µM
[17] = Toxicity in nude mouse xenografted with human A549 cells assessed as effect on body weight at 10 to 20 mg/kg, ip administered daily for 21 days and measured every 2 or 3 days; assay type: organism-based; details: in vivo, 504 h, dose 10-20 mg/kg, time 21 day
A549 [18] = assay: Induction of apoptosis in human A549 cells assessed as late apoptotic cells at 3 uM incubated for 24 hrs by annexin V-FITC and propidium iodide staining based flow cytometry analysis (reference value: 1.4 %); assay type: functional
[19] = Volume of distribution in rat at 5 mg/kg, ig; assay type: ADME, organism-based; details: in vivo, po
[20] = Clearance in rat at 5 mg/kg, ig; assay type: ADME, organism-based; details: in vivo, po

NC(=O)N1N=C(c2ccc(C(F)(F)F)cc2)CC1c1cn(Cc2ccc(OCCN3CCCCCC3)cc2)c2ccc(Br)cc12 (configuration not stated)
inhibition (Mus musculus): Active | half-life [1]: 11.8 h | inhibition [2]: Dose-dependent effect | fold change (FC) (A549 [3]): 1.93 | Activity [4]: Non-Toxic | viability at 9 µM (A549 [5]): 60.6% | bioavailability [6]: 5.6% | Activity (A549 [7]): 1.7% | Activity (A549 [8]): 0.4% | MRT [9]: 13.7 h | Activity (A549 [10]): Active | Kd (Estrogen receptor): 47.2 µM | Activity [11]: Active | Activity (A549 [12]): Dose-dependent effect | Activity [13]: 28.3 RU | Ratio IC50 (A549 [14]): 5.5 | AUC(0-inf) [15]: 585 ng·h/mL | Activity [16]: Active | Activity [17]: Non-Toxic | Activity (A549 [18]): 2.5% | Vd [19]: 12.6 L/kg | CL [20]: 14.8 mL/min/kg
